Square brackets hold non-standard residues; d marks the D form. Ends that are not written are not given here. Peptide text beside a SMILES is read from it. * marks the point of attachment. hArg = N=C(N)NCCCC[C@H](N)C(=O)O; Octanoyl = CCCCCCCC(=O)*

Biological target in one test: not listed separately
The experiment in a line: Inhibition of lipopolysaccharide binding to dye (LPS50). Set-up: species or system E. coli. The conditions noted are these: concentration of peptide necessary to inhibit the binding of 50% of the lipopolysaccharide to the dye; absorbance at 460 nm and 510 nm. The method, then:
A stock solution (10×) of 0.6 mM dye is prepared by adding 1.68 mg of (1-ethyl-2-(3-[1-ethylnaphthol(1,2-d)- thiazolin-2-ylidene]-2-methylpropenyl)naphtho-(1,2-d)-thiazolium bromide (Signa E-7762) to 5 ml of 200 proof ethanol. 1 ml of this solution was added to 9 ml ethanol to give 0.06 mM of dye (60 μM dye).
A stock solution of lipopolysaccharide (LPS) from E. coli serotype 0111:B4 was prepared at 1.5 mg/ml. 400 μl of this solution was mixed with 4.6 ml pyrogen free water to give a 120 μg/ml solution.
Row 1 and rows 3 through 12 of a microtiter plate were filled with 100 μl of pyrogen free water or with 10 mg/ml of bovine serum albumin. 200 μl of peptide then is added to row 2 of the microtiter plate at a concentration of […]. 200 μl of pyrogen free water is added to each of the control wells in two lanes (having dye and LPS but no peptide or having dye and no LPS and no peptide). 100 μl then is serially diluted from row 2 through row 12 of the microtiter plate. 50 μl of PBS (pH 7.4) and 50 μl of the LPS solution then are added to row 1 of the plate (blank wells).
Equal volumes of the LPS solution, the dye, and PBS (pH 7.4, approx. 150 mM) are mixed to form a dye-buffer--LPS mixture having LPS at a final concentration of 40 μg/mi and dye at a final concentration of 20 μM. The dye-buffer LPS mixture then is incubated for 10 minutes at room temperature in the dark.
The plate is incubated for 10 minutes at room temperature in the dark, and the absorbance at 460 nm and 510 nm is read. From these absorbances, the LPS50 value, which is the concentration in mg/ml of peptide necessary to inhibit the binding of 50% of the lipopolysaccharide to the dye, is calculated.
`CCCCCCCC(=O)N[C@@H](CC(C)C)C(=O)N[C@@H](CCCCN)C(=O)N[C@@H](CCCCN)C(=O)N[C@@H](CC(C)C)C(=O)N[C@@H](CCCCN)C(=O)N[C@@H](CCCCN)C(=O)N[C@@H](CC(C)C)C(N)=O` [Oct-(SEQ ID NO: 106)-NH2] (Octanoyl-LKKLKKL-NH2): the LPS50 stood at 6.80 µg/mL.
The compound `CCCCCCCC(=O)N[C@@H](CC(C)C)C(=O)N[C@@H](CCCCN)C(=O)N[C@@H](CCCCN)C(=O)N[C@@H](CC(C)C)C(=O)N[C@@H](CC(C)C)C(=O)N[C@@H](CCCCN)C(=O)N[C@@H](CCCCN)C(=O)N[C@@H](CC(C)C)C(=O)N[C@@H](CCCCN)C(=O)N[C@@H](CCCCN)C(=O)N[C@@H](CC(C)C)C(N)=O` [Oct-(SEQ ID NO: 110)-NH2] (Octanoyl-LKKLLKKLKKL-NH2) gave an LPS50 of 0.84 µg/mL.
The same measure, in the same setting: the figure for `CCCCCCCC(=O)N[C@@H](CC(C)C)C(=O)N[C@@H](CC(C)C)C(=O)N[C@@H](CCCCN)C(=O)N[C@@H](CCCCN)C(=O)N[C@@H](CC(C)C)C(=O)N[C@@H](CCCCN)C(=O)N[C@@H](CCCCN)C(=O)N[C@@H](CC(C)C)C(N)=O` [Oct-(SEQ ID NO: 107)-NH2] (Octanoyl-LLKKLKKL-NH2) is 15.00 µg/mL; for `CCCCCCCC(=O)N[C@@H](C)C(=O)N[C@@H](CCCCN)C(=O)N[C@@H](CCCCN)C(=O)N[C@@H](CC(C)C)C(=O)N[C@@H](CC(C)C)C(=O)N[C@@H](CCCCN)C(=O)N[C@@H](CCCCN)C(=O)N[C@@H](CC(C)C)C(=O)N[C@@H](CCCCN)C(=O)N[C@@H](CCCCN)C(=O)N[C@@H](CC(C)C)C(N)=O` [Oct-(SEQ ID NO: 111)-NH2] (Octanoyl-AKKLLKKLKKL-NH2) it is 1.00 µg/mL.
The compound `CCCCCCCC(=O)N[C@H](CC(C)C)C(=O)N[C@H](CCCCN)C(=O)N[C@H](CCCCN)C(=O)N[C@H](CC(C)C)C(=O)N[C@H](CC(C)C)C(=O)N[C@H](CCCCN)C(=O)N[C@H](CCCCN)C(=O)N[C@H](CC(C)C)C(=O)N[C@H](CCCCN)C(=O)N[C@H](CCCCN)C(=O)N[C@H](CC(C)C)C(N)=O` [Oct-D-(SEQ ID NO: 110)-NH2] (Octanoyl-[dL][dK][dK][dL][dL][dK][dK][dL][dK][dK][dL]-NH2) registered an LPS50 of 0.97 µg/mL.
For the compound `CCCCCCCC(=O)N[C@@H](CC(C)C)C(=O)N[C@@H](CCCCN)C(=O)N[C@@H](CCCCN)C(=O)N[C@@H](CC(C)C)C(=O)N[C@@H](CC(C)C)C(=O)N[C@@H](CCCCN)C(=O)N[C@@H](CCCCN)C(N)=O` [Oct-(SEQ ID NO: 137)-NH2] (Octanoyl-LKKLLKK-NH2), the LPS50 was found to be 4.80 µg/mL.
On to `CCCCCCCC(=O)N[C@@H](CC(C)C)C(=O)N[C@@H](CCCCN)C(=O)N[C@@H](CCCCN)C(=O)N[C@@H](CC(C)C)C(=O)N[C@@H](CC(C)C)C(=O)N[C@@H](CCCCN)C(=O)N[C@@H](CC(C)C)C(=O)N[C@@H](CC(C)C)C(=O)N[C@@H](CCCCN)C(N)=O` [Oct-(SEQ ID NO: 138)-NH2] (Octanoyl-LKKLLKLLK-NH2), for which the LPS50 stood at 1.00 µg/mL.
Same read-out and setting: the figure for `CCCCCCCC(=O)N[C@@H](CCCCN)C(=O)N[C@@H](Cc1ccccc1)C(=O)N[C@@H](C)C(=O)N[C@@H](CCCCN)C(=O)N[C@@H](Cc1ccccc1)C(=O)N[C@@H](C)C(=O)N[C@@H](CCCCN)C(=O)N[C@@H](CCCCN)C(=O)N[C@@H](Cc1ccccc1)C(=O)N[C@@H](C)C(N)=O` [Oct-(SEQ ID NO: 121)-NH2] (Octanoyl-KFAKFAKKFA-NH2) is 20.00 µg/mL; for “Oct-D-(SEQ ID NO:110)-NH2 -melibionic acid: Oct-D-(SEQ ID NO:110)-NH2 with melibionic acid, not further explained (Octanoyl-LKKLLKKLKKL-NH2; not fully specified (some residues); also: melibionic acid, not further explained)” it is 45.00 µg/mL; for `CCCCCCCC(=O)N[C@@H](CCCCN)C(=O)N[C@@H](CCCCN)C(=O)N[C@@H](CC(C)C)C(=O)N[C@@H](CC(C)C)C(=O)N[C@@H](CCCCN)C(=O)N[C@@H](CCCCN)C(=O)N[C@@H](CC(C)C)C(=O)N[C@@H](CCCCN)C(=O)N[C@@H](CCCCN)C(=O)N[C@@H](CC(C)C)C(N)=O` [Oct-(SEQ ID NO: 109)-NH2] (Octanoyl-KKLLKKLKKL-NH2) it is 0.60 µg/mL.
`CCCCCCCC(=O)N[C@@H](CCCCN)C(=O)N[C@@H](CCCCN)C(=O)N[C@@H](CC(C)C)C(=O)N[C@@H](C)C(=O)N[C@@H](CCCCN)C(=O)N[C@@H](CC(C)C)C(=O)N[C@@H](C)C(=O)N[C@@H](CCCCN)C(=O)N[C@@H](CCCCN)C(=O)N[C@@H](CC(C)C)C(=O)N[C@@H](C)C(N)=O` [Oct-(SEQ ID NO: 123)-NH2] (Octanoyl-KKLAKLAKKLA-NH2) had an LPS50 of 1.70 µg/mL.

The test system of the next test is P. gingivalis. The experiment in a line: Anaerobic antimicrobial susceptibility test (NCCLS M11-T2), P. gingivalis. Format: cell-based. Particulars: strain W50, BHI broth, 24-48 hours.
Turning to `CCCCCCCC(=O)N[C@@H](CCCCN)C(=O)N[C@H](C(=O)N[C@@H](C)C(=O)NCC(=O)N[C@@H](CCCCN)C(=O)N[C@H](C(=O)N[C@@H](C)C(=O)N[C@@H](CCCCN)C(=O)N[C@H](C(=O)N[C@@H](C)C(=O)NCC(=O)N[C@@H](CCCCN)C(=O)N[C@H](C(=O)N[C@@H](C)C(=O)N[C@@H](CCCCN)C(=O)N[C@H](C(=O)N[C@@H](C)C(=O)NCC(=O)N[C@@H](CCCCN)C(=O)N[C@H](C(=O)N[C@@H](C)C(=O)O)[C@@H](C)CC)[C@@H](C)CC)[C@@H](C)CC)[C@@H](C)CC)[C@@H](C)CC)[C@@H](C)CC` [Oct-(SEQ ID NO: 27)-OH] (Octanoyl-KIAGKIAKIAGKIAKIAGKIA-OH), the “MIC P. gingivalis (strain) W50” value is given as 1 μl/ml.
The same measure, in the same setting: with `CCCCCCCC(=O)N[C@@H](CCCCNC(=N)N)C(=O)N[C@H](C(=O)N[C@@H](C)C(=O)NCC(=O)N[C@@H](CCCCNC(=N)N)C(=O)N[C@H](C(=O)N[C@@H](C)C(=O)N[C@@H](CCCCNC(=N)N)C(=O)N[C@H](C(=O)N[C@@H](C)C(=O)NCC(=O)N[C@@H](CCCCNC(=N)N)C(=O)N[C@H](C(=O)N[C@@H](C)C(=O)N[C@@H](CCCCNC(=N)N)C(=O)N[C@H](C(=O)N[C@@H](C)C(=O)NCC(=O)N[C@@H](CCCCNC(=N)N)C(=O)N[C@H](C(=O)N[C@@H](C)C(N)=O)[C@@H](C)CC)[C@@H](C)CC)[C@@H](C)CC)[C@@H](C)CC)[C@@H](C)CC)[C@@H](C)CC` [Oct-(SEQ ID NO: 66)-NH2] (Octanoyl-[hArg]IAG[hArg]IA[hArg]IAG[hArg]IA[hArg]IAG[hArg]IA-NH2) the figure was 2 μl/ml; with `CC[C@H](C)[C@H](NC(=O)[C@H](CCCCNC(=N)N)NC(=O)CNC(=O)[C@H](C)NC(=O)[C@@H](NC(=O)[C@H](CCCCNC(=N)N)NC(=O)[C@H](C)NC(=O)[C@@H](NC(=O)[C@H](CCCCNC(=N)N)NC(=O)CNC(=O)[C@H](C)NC(=O)[C@@H](NC(=O)[C@H](CCCCNC(=N)N)NC(=O)[C@H](C)NC(=O)[C@@H](NC(=O)[C@H](CCCCNC(=N)N)NC(=O)CNC(=O)[C@H](C)NC(=O)[C@@H](NC(=O)[C@@H](N)CCCCNC(=N)N)[C@@H](C)CC)[C@@H](C)CC)[C@@H](C)CC)[C@@H](C)CC)[C@@H](C)CC)C(=O)N[C@@H](C)C(N)=O` [(SEQ ID NO: 66)-NH2] (H-[hArg]IAG[hArg]IA[hArg]IAG[hArg]IA[hArg]IAG[hArg]IA-NH2), 4 μl/ml.
Same read-out and setting: with “KIAGKIAKIAGKIAKIAGKIA-NH2 [(SEQ ID NO: 27)-NH2]” the figure was 4 μl/ml; with `CCCCCCCC(=O)N[C@@H](CCCCN)C(=O)N[C@H](C(=O)N[C@@H](C)C(=O)NCC(=O)N[C@@H](CCCCN)C(=O)N[C@H](C(=O)N[C@@H](C)C(=O)N[C@@H](CCCCN)C(=O)N[C@H](C(=O)N[C@@H](C)C(=O)NCC(=O)N[C@@H](CCCCN)C(=O)N[C@H](C(=O)N[C@@H](C)C(=O)N[C@@H](CCCCN)C(=O)N[C@H](C(=O)N[C@@H](C)C(=O)NCC(=O)N[C@@H](CCCCN)C(=O)N[C@H](C(=O)N[C@@H](C)C(N)=O)[C@@H](C)CC)[C@@H](C)CC)[C@@H](C)CC)[C@@H](C)CC)[C@@H](C)CC)[C@@H](C)CC` [Oct-(SEQ ID NO: 27)-NH2] (Octanoyl-KIAGKIAKIAGKIAKIAGKIA-NH2), 16 μl/ml.
Still for that read-out and setting: the figure for `CCCCCCCC(=O)N[C@@H](CCCCN)C(=O)N[C@H](C(=O)N[C@@H](C)C(=O)N[C@@H](CCCCN)C(=O)N[C@@H](CCCCN)C(=O)N[C@H](C(=O)N[C@@H](C)C(=O)N[C@@H](CCCCN)C(=O)N[C@H](C(=O)N[C@@H](C)C(=O)N[C@@H](CCCCN)C(=O)N[C@@H](CCCCN)C(=O)N[C@H](C(=O)N[C@@H](C)C(=O)N[C@@H](CCCCN)C(=O)N[C@H](C(=O)N[C@@H](C)C(=O)N[C@@H](CCCCN)C(=O)N[C@@H](CCCCN)C(=O)N[C@H](C(=O)N[C@@H](C)C(=O)O)[C@@H](C)CC)[C@@H](C)CC)[C@@H](C)CC)[C@@H](C)CC)[C@@H](C)CC)[C@@H](C)CC` [Oct-(SEQ ID NO: 86)-OH] (Octanoyl-KIAKKIAKIAKKIAKIAKKIA-OH) is 1 μl/ml.

Source of the values: patent US5654274A, “Biologically active peptides having N-terminal substitutions” (priority 1995, dated 1997).
